# Earlier results as cited in patent US20240286999A1, “AZABICYCLO[3.1.0]HEXANE COMPOUND” (OTSUKA PHARMACEUTICAL CO., LTD., priority 2021, published 2024).
# Legend:
# [1] = system: norepinephrine reuptake (NE); conditions: ranking among NE, DA and 5-HT reuptake
# dopamine reuptake (DA) = conditions: relative to NE reuptake
# [2] = system: serotonin reuptake (5-HT); conditions: relative to NE reuptake
structure (smiles),measurement,setting,value
"c1ccc2cc([C@]34CNC[C@H]3C4)ccc2c1 [(1R,5S)-1-(naphthalen-2-yl)-3-azabicyclo[3.1.0]hexane]",effectiveness against norepinephrine reuptake (NE),[1],most effective
same,effectiveness against dopamine reuptake (DA) relative to norepinephrine reuptake,dopamine reuptake (DA),one-sixth as effective
same,effectiveness against serotonin reuptake (5-HT) relative to norepinephrine reuptake,[2],one-fourteenth as effective
